From US20060100103A1, “Toning agents for use in thermographic recording materials” (AGFA-GEVAERT, priority 2004, published 2006)

Test: Solubility in methyl ethyl ketone
Assay type: physicochemical
For `CN1C(=O)NS(=O)(=O)c2ccccc21` [TA01], the “Solubility in methyl ethyl ketone” value was >2 wt %.
In the case of `CC1=CC(=O)NS(=O)(=O)O1` [TA02], the “Solubility in methyl ethyl ketone” value is reported as >10 wt %.
With `O=C1CS(=O)(=O)OC2=C1CCCC2` [TA03] the “Solubility in methyl ethyl ketone” value was 5.5 wt %.
For `O=C1NS(=O)(=O)Oc2ccccc21` [TA04], the “Solubility in methyl ethyl ketone” value was >10 wt %.
